Molecular target: T1, human heme oxygenase-1 (hHO-1) (Homo sapiens, UniProt P09601)
T1 sequence (P09601 1-288): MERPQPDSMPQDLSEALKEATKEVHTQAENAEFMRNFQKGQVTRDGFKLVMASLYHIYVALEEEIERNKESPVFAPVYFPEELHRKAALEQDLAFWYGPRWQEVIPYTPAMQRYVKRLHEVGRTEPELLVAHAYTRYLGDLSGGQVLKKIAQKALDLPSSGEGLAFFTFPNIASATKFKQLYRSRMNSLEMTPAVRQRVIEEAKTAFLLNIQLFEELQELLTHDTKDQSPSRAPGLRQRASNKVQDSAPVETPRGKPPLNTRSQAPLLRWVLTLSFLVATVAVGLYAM
Assay: UV-Vis Soret equilibrium binding titration

For Brc1ccc(CCC2(Cn3ccnc3)OCCO2)cc1 [OB-24], the Kd was 4.46 ± 0.8 µM.

Reference: publication PMC10189658 (Journal of inorganic biochemistry, 2023)
